Test results: PMC6381277, “Cardiolipin Alters Rhodobacter sphaeroides Cell Shape by Affecting Peptidoglycan Precursor Biosynthesis” (mBio, 2019)

Target: T1, MurG (Cereibacter sphaeroides, UniProt Q3J4M2)
T1 construct: full-length murG in pET28b(+), N-terminal His tag cut with thrombin, E. coli BL21(DE3); Triton X-100 extraction; start encoded by primer MGRPLLL
T1 sequence (Q3J4M2 1-364): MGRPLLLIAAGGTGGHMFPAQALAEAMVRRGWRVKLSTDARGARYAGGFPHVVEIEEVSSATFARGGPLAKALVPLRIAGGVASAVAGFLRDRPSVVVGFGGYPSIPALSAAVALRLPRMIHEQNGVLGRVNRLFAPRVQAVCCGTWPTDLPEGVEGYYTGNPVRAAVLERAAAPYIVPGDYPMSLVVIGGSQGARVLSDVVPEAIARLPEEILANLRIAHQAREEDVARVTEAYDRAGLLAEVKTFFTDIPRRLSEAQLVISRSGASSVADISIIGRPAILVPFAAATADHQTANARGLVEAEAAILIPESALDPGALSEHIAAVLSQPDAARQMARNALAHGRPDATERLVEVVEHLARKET
Test: liposome-pelleting assay, SDS-PAGE densitometry
Type: binding
Settings: 6 uM MurG, 4 mM phospholipid, 0.5 uM BSA, 20 mM Tris pH 8.0, room temperature

Row | % pelleted MurG (10 mol% PGL in PC liposomes (mixed membrane)) | % pelleted MurG (10 mol% CL in PC liposomes (mixed membrane)) | Structure (SMILES)
1 | 92% | – | CCCCCCCC/C=C\CCCCCCCC(=O)OC[C@H](COP(=O)(O)OCC(O)CO)OC(=O)CCCCCCC/C=C\CCCCCCCC (mixture of isomers) [PGL, 1,2-di-(9Z-octadecenoyl)-sn-glycero-D-phospho-(1′-rac-glycerol)]
2 | – | 92% | CCCCCCCC/C=C\CCCCCCCC(=O)OC[C@H](COP(=O)(O)OCC(O)COP(=O)(O)OC[C@@H](COC(=O)CCCCCCC/C=C\CCCCCCCC)OC(=O)CCCCCCC/C=C\CCCCCCCC)OC(=O)CCCCCCC/C=C\CCCCCCCC (some centres unmarked) [CL, 1,1′,2,2′-tetra-(9Z-octadecenoyl) cardiolipin]
